One data set concerns human volunteers. In words: Phase I clinical studies, peroral administration. It counts as in vivo.
The nature of data set [1]: Cardiovascular side effects on sublingual or buccal administration. It counts as in vivo.
Data set [2] in a line: Absorption from aqueous compositions kept under the tongue or in the mouth. It is filed as in vivo. Conditions: aqueous compositions kept under the tongue or in the mouth of a patient.
For a further data set, the system named is histamine. The following applies: cited from earlier work.
The subject of a further data set is serotonin. Conditions: cited from earlier work.

Consider `CN1C[C@@H]2c3ccccc3Oc3ccc(Cl)cc3[C@H]2C1` (relative stereo) [trans-5-chloro-2-methyl-2,3,3a,12b-tetrahydro-1H-dibenz[2,3:6,7]oxepino[4,5-c]pyrrole], for which, in the data set on human volunteers, the Cardiotoxic effects result is recorded as “serious cardiotoxic effects, e.g. postural hypotension and/or impairment of baroreceptor functioning, occurred”. The Cardiovascular side effects entry in data set [1] is reported as “substantially less cardiovascular side effects”. Further, in data set [2], the Absorption entry is “rapidly absorbed”. For the same compound, the Antihistamine activity entry in the data set on histamine was “antihistamine and antiserotonin activities”. In the data set with serotonin, the Antiserotonin activity result was “antihistamine and antiserotonin activities”.

(Values after patent US5763476A, “Sublingual or buccal pharmaceutical composition” (priority 1994, dated 1998).)
